Test results: patent US11351178B2, “Selective HDAC6 inhibitors” (ITALFARMACO S.P.A., priority 2017, dated 2022)

Assays:
[1] = biological target: T1, recombinant human HDAC6 (Homo sapiens, UniProt Q9UBN7); assay: Enzymatic screening on recombinant human HDAC6; format: biochemical; details: Table 2; read-out: HDAC6 IC50
T1 sequence (Q9UBN7 1-1215): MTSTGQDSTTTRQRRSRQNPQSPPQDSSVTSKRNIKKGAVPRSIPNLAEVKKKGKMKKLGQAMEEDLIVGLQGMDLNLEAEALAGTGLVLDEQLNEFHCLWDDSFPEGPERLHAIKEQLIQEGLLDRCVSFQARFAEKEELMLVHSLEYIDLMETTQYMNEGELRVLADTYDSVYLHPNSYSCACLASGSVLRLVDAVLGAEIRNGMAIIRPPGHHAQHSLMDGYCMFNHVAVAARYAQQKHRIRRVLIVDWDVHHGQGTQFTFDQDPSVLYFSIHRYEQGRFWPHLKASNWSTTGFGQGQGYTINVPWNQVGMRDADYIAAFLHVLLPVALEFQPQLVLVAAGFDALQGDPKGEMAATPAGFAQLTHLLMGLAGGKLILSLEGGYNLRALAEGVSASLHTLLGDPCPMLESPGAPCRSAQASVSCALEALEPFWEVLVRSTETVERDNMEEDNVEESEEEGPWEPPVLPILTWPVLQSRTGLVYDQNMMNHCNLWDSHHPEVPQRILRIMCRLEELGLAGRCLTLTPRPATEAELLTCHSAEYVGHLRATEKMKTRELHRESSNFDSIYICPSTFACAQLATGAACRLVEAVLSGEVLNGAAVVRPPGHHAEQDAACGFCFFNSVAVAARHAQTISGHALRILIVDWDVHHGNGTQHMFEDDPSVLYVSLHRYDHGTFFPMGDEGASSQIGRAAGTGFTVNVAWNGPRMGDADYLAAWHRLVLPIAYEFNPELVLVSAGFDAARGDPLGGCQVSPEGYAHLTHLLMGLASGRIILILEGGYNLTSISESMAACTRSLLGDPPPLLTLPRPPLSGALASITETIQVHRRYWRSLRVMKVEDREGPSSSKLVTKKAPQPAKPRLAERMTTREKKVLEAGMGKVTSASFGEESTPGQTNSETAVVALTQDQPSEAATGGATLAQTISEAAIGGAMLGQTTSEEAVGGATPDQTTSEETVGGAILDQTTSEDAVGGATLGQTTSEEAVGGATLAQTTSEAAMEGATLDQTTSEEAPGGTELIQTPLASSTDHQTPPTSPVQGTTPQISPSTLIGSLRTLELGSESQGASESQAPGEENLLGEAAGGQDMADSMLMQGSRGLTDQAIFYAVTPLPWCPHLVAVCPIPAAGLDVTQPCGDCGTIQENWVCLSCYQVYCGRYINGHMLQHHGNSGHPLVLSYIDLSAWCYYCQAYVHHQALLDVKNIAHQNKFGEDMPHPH
Method in brief: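 Recombinant human HDAC isoforms were incubated with compound at 30 °C for isoform-specific times. Fluor de Lys, Fluor de Lys-Green or trifluoroacetyl-lysine substrate in Tris-HCl pH 8 buffer with NaCl, Tween-20 and glycerol was then added, followed by reaction at 30 °C.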

[2] = test system: B 697 promyelocytic cell line; assay: Cytotoxicity on 697 cell line (CellTiter 96); format: cell-based; details: 72 hours incubation, read-out: 697 TOXICITY
Method in brief: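 Cells seeded (2×10^4/well for 697, 5×10^5/well for PBMCs); compounds added after 24 h at 1–10000 nM (697) or 1.5–10000 nM (PBMCs) and incubated 72 h. Viability read by CellTiter 96 Aqueous One tetrazolium assay of mitochondrial function.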

[3] = test system: peripheral blood mononuclear cells (PBMCs); assay: Cytotoxicity on PBMCs (CellTiter 96); format: cell-based; details: PBMC, 72 h; read-out: PBMC TOXICITY (72 h)
Experimental: Cytotoxic activity was evaluated on B 697 […] cell line for all synthesized compounds and on peripheral blood mononuclear cells (PBMCs) for compounds showing a good potency/selectivity profile.
Cells were seeded in plate (2×10^4 cells per well for 697, 5×10^5 cells per well for PBMCs). The test compounds (concentrations from 1.5 nM to 10000 nM for PBMCs and from 1 nM to 10000 nM for 697) were added after 24 hours and incubated 72 hours. The molecules cytotoxic activity was evaluated using CellTiter 96© Aqueous One Solution Cell Proliferation Assay (Promega), which measures the mitochondria function, following the manufacturer's instructions.

[4] = Stability to Phase I metabolism in rat S9 liver fraction; format: in vitro ADME; details: after 90 min, 37° C.
Method in brief: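 Compounds were incubated with rat or human liver S9 fraction at 37 °C for up to 90 min. Reactions were quenched on ice with acidified acetonitrile and analysed by HPLC-UV or LC-MS/MS. Percent remaining versus time zero and intrinsic clearance were calculated.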

[5] = Stability in rat plasma; format: in vitro ADME; details: after 4 hours, 37° C.
Method in brief: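 Compounds incubated at 37° C in rat or human plasma at 50 μM (UV/HPLC) or 1 or 2 μM (LC-MS/MS) for 0–4 h. Reaction stopped with acidified acetonitrile on ice; percent remaining versus initial amount and plasma half-life calculated.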

[6] = Stability to Phase I metabolism in human S9 liver fraction; format: in vitro ADME; details: human, 90 min, pH 7.4
Experimental: Test compounds were incubated in rat and human liver S9 fraction at 37° C. up to 90 minutes in order to evaluate their stability to Phase I metabolism by hepatic enzymes. […] The reaction was stopped placing samples on ice bath and adding acidified acetonitrile. After centrifugation (10 minutes at 14000 rpm) an aliquot of the supernatant was diluted water, filtered with 0.45 μm regenerated cellulose syringe filters and injected in HPLC-UV or in LC-MS/MS. The percentages of the amount remaining at the various incubation times with respect to the initial amount were calculated. The intrinsic clearance was also calculated.

[7] = Stability in human plasma; format: in vitro ADME; details: after 4 hours, 37° C.
Experimental: In order to evaluate the stability to circulating enzymes, test compounds were incubated in human and rat plasma at 37° C. in a thermostated oscillating bath. Each test compound was incubated at μM (50 μM when the samples were analysed by UV/HPLC, 1 or 2 μM when the samples were analysed by LC-MS/MS) concentration for 0, 15, 30 min and 1, 2 and 4 hours. The reaction was stopped placing tubes on ice bath and adding acidified acetonitrile. After centrifugation for 10 minutes at 14000 rpm, an aliquot of the supernatant was diluted with water, filtered with 0.45 μm syringe filters and injected in HPLC-UV or in LC-MS/MS. The percentages of amount remaining at the various times of incubation with respect to initial amount were calculated. The half-life in plasma was also calculated.

Row | SMILES | IC50 [1] [nM] | residual percentage in rat S9 fraction [4] [%] | residual percentage in rat plasma [5] [%] | residual percentage in human S9 fraction [6] [%] | residual percentage in human plasma [7] [%] | IC50 [2] [nM] | IC50 [3] [nM]
1 | O=C(NO)c1cc(F)c(Cn2nnnc2-c2ccco2)c(F)c1 [comp. 92, 3,5-difluoro-4-[[5-(2-furyl)tetrazol-1-yl]methyl]benzenecarbohydroxamic acid] | 27 | 71 | 79 |  |  | > 10000 | > 10000
2 | O=C(NO)c1cc(F)c(Cn2nnc(-c3nccc4ccccc34)n2)c(F)c1 [comp. 93, 3,5-difluoro-4-[[5-(1-isoquinolyl)tetrazol-2-yl]methyl]benzenecarbohydroxamic acid] | 22 | 53 | 10 |  |  | > 10000 | > 10000
3 | Cn1c(Sc2c(F)cc(C(=O)NO)cc2F)nnc1C(C)(C)c1cccnc1 [comp. 186, 3,5-difluoro-4-[[4-methyl-5-[1-methyl-1-(3-pyridyl)ethyl]-1,2,4-triazol-3-yl]sulfanyl]benzenecarbohydroxamic acid] | 23 | 9 | 75 |  |  | 10400 | ≥ 100000
4 | O=C(NO)c1cc(F)c(Sc2nnc(-c3cccnc3)s2)c(F)c1 [comp. 191, 3,5-difluoro-N-hydroxy-4-((5-(pyridin-3-yl)-1,3,4-thiadiazol-2-yl)thio)benzamide] | 22 | 35 | 92 | 42 | 93 |  | 
5 | O=C(NO)c1cc(F)c(Sc2nnc(-c3ccccc3)o2)c(F)c1 [comp. 192, 3,5-difluoro-4-[(5-phenyl-1,3,4-oxadiazol-2-yl)sulfanyl]benzenecarbohydroxamic acid] | 31 | 17 | 90 | 43 | 100 |  | 
6 | CN(c1ccc(-c2nnc(Sc3c(F)cc(C(=O)NO)cc3F)s2)cc1)S(C)(=O)=O [compound 187, 3,5-difluoro-4-[[5-[4-[methyl(methylsulfonyl)amino]phenyl]-1,3,4-thiadiazol-2-yl]sulfanyl]benzenecarbohydroxamic acid] | 55 | 17 | 101 | 54 | 92 |  | 
7 | O=C(NO)c1cc(F)c(Cc2noc(-c3ccccc3)n2)c(F)c1 [compound 194, 3,5-difluoro-N-hydroxy-4-((5-phenyl-1,2,4-oxadiazol-3-yl)methyl)benzamide] | 11 | 3 | 89 | 29 | 99 |  | 
8 | O=C(NO)c1cc(F)c(Sc2nnc(-c3cncc(Br)c3)s2)c(F)c1 [compound 196, 4-[[5-(5-bromo-3-pyridyl)-1,3,4-thiadiazol-2-yl]sulfanyl]-3,5-difluoro-benzenecarbohydroxamic acid] | 53 | 23 | 99 | 26 | 89 |  | 

Now those with a lower IC50 [1], led by results:

Row | IC50 [1] [nM] | residual percentage in rat S9 fraction [4] [%] | residual percentage in rat plasma [5] [%] | residual percentage in human S9 fraction [6] [%] | residual percentage in human plasma [7] [%] | SMILES | IC50 [2] [nM] | IC50 [3] [nM]
9 | 8 | 67 | 86 | 59 | 76 | CCN(CC)Cc1ccc(-c2nnc(Sc3c(F)cc(C(=O)NO)cc3F)n2C)o1 [comp. 211, 4-[[5-[5-(diethylaminomethyl)-2-furyl]-4-methyl-1,2,4-triazol-3-yl]sulfanyl]-3,5-difluoro-benzenecarbohydroxamic acid] |  | 
10 | 7 | 7 | 93 | 49 | 90 | O=C(NO)c1ccc(Sc2nnc(-c3ccccc3)o2)cc1 [comp. 188, 4-[(5-phenyl-1,3,4-oxadiazol-2-yl)sulfanyl]benzenecarbohydroxamic acid] |  | 
11 | 7 | 50 | 88 | 97 | 92 | CN(C)Cc1ccc(-c2nnc(Sc3c(F)cc(C(=O)NO)cc3F)n2C)o1 [comp. 206, 4-[[5-[5-[(dimethylamino)methyl]-2-furyl]-4-methyl-1,2,4-triazol-3-yl]sulfanyl]-3,5-difluoro-benzenecarbohydroxamic acid] |  | 
12 | 6 | 57 | 92 | 75 | 90 | Cn1c(Sc2c(F)cc(C(=O)NO)cc2F)nnc1-c1ccco1 [comp. 199, 3,5-difluoro-4-[[5-(2-furyl)-4-methyl-1,2,4-triazol-3-yl]sulfanyl]benzenecarbohydroxamic acid] |  | 
13 | 6 | 63 | 81 | 71 | 100 | O=C(NO)c1ccc(Cc2noc(-c3ccnc(N4CCOCC4)c3)n2)cc1 [compound 193, 4-[[5-(2-morpholino-4-pyridyl)-1,2,4-oxadiazol-3-yl]methyl]benzenecarbohydroxamic acid] |  | 
14 | 1 | 44 | 68 |  |  | Nc1ccc(-c2nnn(Cc3ccc(C(=O)NO)cc3)n2)cc1 [comp. 169, 4-[[5-(4-aminophenyl)tetrazol-2-yl]methyl]benzenecarbohydroxamic acid] | 271 | 24
